In experiment [1] the test system is MOLM-13 cells. In words: MOLM-13 Uridine Rescue Assay. The format is cell-based. Particulars: Homo sapiens; MOLM-13 cell proliferation with 100 μM Uridine added, 72 Hours of culture. A digest of the protocol: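 MOLM-13 cells (passage <20) in RPMI 1640 + 10% FBS at 10^4 cells/well, treated with compound in 0.5% final DMSO for 72 h at 37 °C, 5% CO2. Viability by CellTiter-Glo luminescence. Rescue plates additionally received 100 μM uridine.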

Experiment [2] deals with MOLM-13 cells. In words: MOLM-13 Cell Proliferation Assay (indicator of DHODH inhibition). It counts as cell-based. Conditions: Homo sapiens, 72 Hours of culture, CellTiter-Glo, no uridine. A digest of the protocol: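 Low-passage MOLM-13 cells (10^4/well) in RPMI 1640 + 10% FBS exposed to compound (0.5% DMSO final) for 72 h at 37 °C, 5% CO2. Viability read by CellTiter-Glo luminescence; growth reflects de novo pyrimidine synthesis dependent on DHODH.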
(In general: ATP-based viability assays read luminescence as a measure of living cells.)

One may read the IC50 as the point on the concentration scale where inhibition reaches its midpoint. Higher therefore signals a need for much substance. Take `Cc1ccc2[nH]c3c(c2c1)CCN(c1nccc(C(F)(F)F)n1)C3c1ccc(C)c(F)c1F` (stereo not drawn) [Compound 271, 1-(2,3-difluoro-4-methylphenyl)-6-methyl-2-[4-(trifluoromethyl)pyrimidin-2-yl]-2,3,4,9-tetrahydro-1H-pyrido[3,4-b]indole]: the IC50 in the experiment on MOLM-13 cells [1] was 22.7 µM; in the experiment on MOLM-13 cells [2], 3.7 nM.
On the same counts, the results for `Cc1ccc(C2c3[nH]c4ccc(Cl)cc4c3CCN2c2nc(C(F)(F)F)cc(C(F)(F)F)n2)c(F)c1F` (stereo not drawn) [Compound 340, 2-[4,6-bis(trifluoromethyl)pyrimidin-2-yl]-6-chloro-1-(2,3-difluoro-4-methylphenyl)-2,3,4,9-tetrahydro-1H-pyrido[3,4-b]indole] are 15.2 µM and 1 nM.
On the same counts, the results for `Cc1ccc(C2c3[nH]c4cc(F)c(Cl)cc4c3CCN2c2nccc(C(F)(F)F)n2)cc1` (stereo not drawn) [Compound 72, 6-chloro-7-fluoro-1-(4-methylphenyl)-2-[4-(trifluoromethyl)pyrimidin-2-yl]-2,3,4,9-tetrahydro-1H-pyrido[3,4-b]indole] are 18.8 µM and 3.5 nM.
For `Cc1ccc([C@H]2c3[nH]c4ccc(Cl)cc4c3CCN2c2ncnc(C(F)(F)F)n2)cc1` [Compound 418, (1S)-6-chloro-1-(4-methylphenyl)-2-[4-(trifluoromethyl)-1,3,5-triazin-2-yl]-2,3,4,9-tetrahydro-1H-pyrido[3,4-b]indole], the IC50 with MOLM-13 cells [1] came out at 14.9 µM; in the experiment with MOLM-13 cells [2], 2 nM.
Take `Cc1nc(C)nc(N2CCc3c([nH]c4ccc(Cl)cc34)C2c2ccc(N3CCOCC3)c(F)c2F)n1` (stereo not drawn) [Compound 284, 6-chloro-1-[2,3-difluoro-4-(morpholin-4-yl)phenyl]-2-(4,6-dimethyl-1,3,5-triazin-2-yl)-2,3,4,9-tetrahydro-1H-pyrido[3,4-b]indole]: the IC50 with MOLM-13 cells [1] turned out to be 12.2 µM; in the experiment with MOLM-13 cells [2], 12.9 nM.
On to `Fc1cc2[nH]c3c(c2cc1Cl)CCN(c1nccc(C(F)(F)F)n1)C3c1cccc(F)c1F` (stereo not drawn) [Compound 108, 6-chloro-1-(2,3-difluorophenyl)-7-fluoro-2-[4-(trifluoromethyl)pyrimidin-2-yl]-2,3,4,9-tetrahydro-1H-pyrido[3,4-b]indole], for which the results for the IC50 with MOLM-13 cells [1] and in the experiment on MOLM-13 cells [2] were 8.27 µM and 1.9 nM, respectively.
Regarding `Cc1ccc(C2c3[nH]c4ccc([N+](=O)[O-])cc4c3CCN2c2nccc(C(F)(F)F)n2)cc1` (stereo not drawn) [Compound 265, 1-(4-methylphenyl)-6-nitro-2-[4-(trifluoromethyl)pyrimidin-2-yl]-2,3,4,9-tetrahydro-1H-pyrido[3,4-b]indole], the IC50 in the experiment with MOLM-13 cells [1] turned out to be 10.7 µM; in the experiment on MOLM-13 cells [2], 3 nM.
As to `Cc1ccc(C2c3[nH]c4ccc(Br)cc4c3CCN2c2nccc(C(F)(F)F)n2)cc1` (stereo not drawn) [Compound 264, 6-bromo-1-(4-methylphenyl)-2-[4-(trifluoromethyl)pyrimidin-2-yl]-2,3,4,9-tetrahydro-1H-pyrido[3,4-b]indole], the IC50 with MOLM-13 cells [1] was 20.9 µM; in the experiment with MOLM-13 cells [2], 0.9 nM.
For `FC(F)(F)c1cc(C(F)(F)F)nc(N2CCc3c([nH]c4ccc(Cl)cc34)[C@@H]2c2ccc(N3CCOCC3)nc2)n1` [Compound 409, (1S)-2-[4,6-bis(trifluoromethyl)pyrimidin-2-yl]-6-chloro-1-[6-(morpholin-4-yl)pyridin-3-yl]-2,3,4,9-tetrahydro-1H-pyrido[3,4-b]indole] the same measures were 12.6 µM and 0.2 nM.
Regarding `Cc1ccc([C@H]2c3[nH]c4ccc(Cl)cc4c3CCN2c2nc(C(F)(F)F)nc(C(F)(F)F)n2)c(F)c1F` [Compound 387, (1S)-2-[4,6-bis(trifluoromethyl)-1,3,5-triazin-2-yl]-6-chloro-1-(2,3-difluoro-4-methylphenyl)-2,3,4,9-tetrahydro-1H-pyrido[3,4-b]indole], the IC50 was 7.66 µM with MOLM-13 cells [1] and 0.2 nM in the experiment on MOLM-13 cells [2].
In the case of `Cc1cc(N)c2[nH]c3c(c2c1)CCN(c1nccc(C(F)(F)F)n1)C3c1ccc(C)c(F)c1F` (stereo not drawn) [Compound 272, 1-(2,3-difluoro-4-methylphenyl)-6-methyl-2-[4-(trifluoromethyl)pyrimidin-2-yl]-2,3,4,9-tetrahydro-1H-pyrido[3,4-b]indol-8-amine], the IC50 in the experiment on MOLM-13 cells [1] stood at 7.68 µM; with MOLM-13 cells [2], 7.9 nM.
For `N#Cc1ccc(C2c3[nH]c4ccc(Cl)cc4c3CCN2c2nccc(C(F)(F)F)n2)c(F)c1F` (stereo not drawn) [Compound 278, 4-{6-chloro-2-[4-(trifluoromethyl)pyrimidin-2-yl]-2,3,4,9-tetrahydro-1H-pyrido[3,4-b]indol-1-yl}-2,3-difluorobenzonitrile] the same measures were 4.81 µM and 1.7 nM.
In the case of `Cc1cc(C)nc(N2CCc3c([nH]c4ccc(Cl)cc34)C2c2ccc(N3CCOCC3)nc2)n1` (stereo not drawn) [Compound 350, 6-chloro-2-(4,6-dimethylpyrimidin-2-yl)-1-[6-(morpholin-4-yl)pyridin-3-yl]-2,3,4,9-tetrahydro-1H-pyrido[3,4-b]indole], the IC50 with MOLM-13 cells [1] came to 14.9 µM; in the experiment on MOLM-13 cells [2], 4.8 nM.
On the same counts, the results for `Cc1ccc(C2c3[nH]c4c(N)cc(Cl)cc4c3CCN2c2nccc(C(F)(F)F)n2)c(F)c1F` (stereo not drawn) [Compound 248, 6-chloro-1-(2,3-difluoro-4-methylphenyl)-2-[4-(trifluoromethyl)pyrimidin-2-yl]-2,3,4,9-tetrahydro-1H-pyrido[3,4-b]indol-8-amine] are 8.55 µM and 0.5 nM.
On the same counts, the results for `Cc1ccc(C2c3[nH]c4ccc(Cl)cc4c3CCN2c2nc(C)cc(C(F)(F)F)n2)cc1` (stereo not drawn) [Compound 361, 6-chloro-1-(4-methylphenyl)-2-[4-methyl-6-(trifluoromethyl)pyrimidin-2-yl]-2,3,4,9-tetrahydro-1H-pyrido[3,4-b]indole] are 22.1 µM and 1.8 nM.
